Assay results from US20230210825A1, “METHODS AND COMPOSITIONS FOR TREATING SUBJECTS WITH METABOLIC DISORDERS AND CORONAVIRUS INFECTIONS” (CIRIUS THERAPEUTICS, INC., priority 2020, published 2023).

Tested on: mice on high trans-fat, fructose, cholesterol (HTF-C) diet
Test: Serum miRNA sequencing in HTF-C diet mice
Assay type: in vivo
Conditions: HTF-C diet containing 331 ppm MSDC-0602K after 4 or 16 weeks of plain HTF-C diet
Experimental: To begin evaluating the exosome cargo of MSDC-0602K-treated mice, WT mice were fed with either a low fat (LF) control diet (Research Diets D09100304) or high trans-fat, fructose, cholesterol (HTF-C) diet composed of 40% trans-fat, 20% fructose, 2% cholesterol (Research Diets D09100301). A subset of mice was fed plain HTF-C diet for 4 or 16 weeks, then switched to HTF-C diet that contained 331 ppm MSDC-0602K.
Total RNA was isolated from 400 μL of serum and small RNA sequencing was performed by adapter ligation, cDNA synthesis and size selection of 145-160 base pairs. Sequencing was then performed on an Illumina HiSeq3000.

COc1cccc(C(=O)COc2ccc(CC3SC(=O)NC3=O)cc2)c1 (stereo not shown) [MSDC-0602K]
serum miRNAs altered by HTF-C diet: largely corrected
